“Also recorded” adds a separate entry of the source.
Assays:
[1] = test system: adult male rats; assay: Postincisional hypersensitivity model of postoperative pain (paw incision, withdrawal threshold to von Frey filaments); type: in vivo, rat; settings: intrathecal (i.t.), 24 h after paw incision surgery
Method: Animal preparation: Following Animal Care and Use Committee approval, an intrathecal (i.t.) catheter with tip in the lumbar space is inserted as previously described in adult male rats weighing 250 g (Yaksh and Rudy, Physiol Behav. 1976, 7, 1032-1036). One week following the insertion of the i.t. catheter, paw incision surgery is performed as previously described (Brennan et al., Pain 1996, 64, 493-501). Briefly, animals are anesthetized with halothane, and a 1-cm long incision is made in the plantar aspect of the left hind paw starting 0.5 cm from the edge of the heel toward the toe after sterile preparation with 70% ethanol. The plantaris muscle is elevated and incised longitudinally. The wound is closed with 2 mattress sutures of 5.0 silk. Subsequently, withdrawal threshold to von Frey filaments is determined one day after surgery (Chaplan et al., J. Neurosci. Methods, 1994, 53, 55-63). For all testing but pilot dose ranging studies, investigators are blinded to study drug administration. A cut off value of 22 g is used. […]
Single drug injection: For single drug administration, a volume containing 5 μL drug is used, followed by 10 μL of saline. […] Dose response curves are first constructed, and ED40 values for single drugs are then determined at the time of peak effect.
Drug interaction: For the combination of T-62 with morphine and NBQX, two injections are performed since the time of peak effect for morphine and NBQX is 30 min earlier than that of T-62 (T-62 is injected 30 min before drug injections). Paw withdrawal thresholds are determined before surgery, before drug injection, and 30, 60, 90, 120, 150, 180, and 210 min after the second drug injection. […] The dose response curves are then constructed for the combined drugs, and the ED40 values of the combined drugs are calculated at the time point of peak effect. […]
Data analysis: Data are presented as mean ±S.E. Withdrawal threshold data are analyzed by two-way analysis of variance followed by Fisher's LSD test. […] Isobolograms are statistically analyzed by student T test.

[2] = test system: male Sprague-Dawley rats; assay: Neuropathic pain model (Chung model, spinal nerve ligation, withdrawal threshold to von Frey filaments); type: in vivo, rat; settings: Chung model of chronic neuropathic pain, FIG. 8; for anti-allodynic effects: intrathecal single injection
Description: Spinal Nerve Ligation: After Animal Care and Use Committee approval, male Sprague-Dawley rats (Harlan, Indianapolis, Ind., USA) weighing 180-200 g undergo anesthesia as previously described by Kim and Chung (Pain 1992, 50, 355-363). Briefly, under general anesthesia with inhalational halothane, the left L5 and L6 spinal nerves are identified through a small laminotomy and tightly ligated. Approximately one week later, an intrathecal catheter is placed under general anesthesia by insertion under direct vision of a polyethylene catheter through a small slit in the dura at the cisterna magnum, and advanced 8.5 cm such that the catheter tip resides in the lower lumbar intrathecal space. Animals are studied approximately one week later. Ligation of the lumbar spinal nerves results in a primarily unilateral increase in the sensitivity to light touch on the operated side. Sensitivity is assessed via application of calibrated von Frey filaments. The withdrawal threshold is determined using an up down method as previously described by Chaplan et al. (J. Neurosci. Methods 1994, 53, 55-63).
Experimental Design: Animals receive, at least 4 weeks after spinal nerve ligation surgery, and at least 1 week after intrathecal catheter insertion, single injections of vehicle (β-cyclodextrin) or the drug substance, using a randomized and blinded protocol. Withdrawal thresholds are determined at intervals for up to 20 hr after injection.

[3] = cited from earlier work

Row | SMILES | anti-hypersensitivity effect (reduction of mechanical hypersensitivity) [1] | anti-allodynic effects [2] | other results
1 | Nc1sc2c(c1C(=O)c1ccc(Cl)cc1)CCCC2 [T-62, (2-amino-4,5,6,7-tetrahydrobenzo[b]thiophen-3-yl)(4-chlorophenyl)methanone] | reduced mechanical hypersensitivity in a time dependent manner; also recorded: modest effect | dose-dependent anti-allodynic effects | effect on inflammatory and neuropathic pain ([3]; literature (Li et al. 2003, Li et al. 2002, Pan et al. 2001; US 6,248,774, US 6,489,356)): reduce inflammatory and neuropathic pain; oral efficacy ([3]; literature): orally effective; adverse side effects ([3]; literature, compared with administration of adenosine): avoid of the adverse side effects associated with administration of adenosine
2 | CN1CC[C@]23c4c5ccc(O)c4O[C@H]2[C@@H](O)C=C[C@H]3[C@H]1C5 [Morphine, morphine, reference compound] | reduces mechanical hypersensitivity in a time and dose dependent manner | – | –
3 | Nc1sc2c(c1C(=O)c1ccccc1)CCS2 [formula (Ib)] | – | dose-dependent anti-allodynic effects | –
4 | Nc1sc2c(c1C(=O)c1cccc3ccccc13)CCC2 [formula (Ic)] | – | dose-dependent anti-allodynic effects | relative potency among the three enhancers [2]: most potent enhancer of the three agents
5 | NS(=O)(=O)c1cccc2c1c([N+](=O)[O-])cc1nc(O)c(O)nc12 [NBQX, 2,3-dihydroxy-6-nitro-7-sulfamoylbenzo(f)quinoxaline, reference compound] | reduces the mechanical hypersensitivity in a time and dose dependent manner | – | –

Source: patent US20080108622A1, “COMBINATION THERAPY FOR THE TREATMENT OF PAIN” (priority 2006, published 2008)
